These results are taken from patent publication US8299092B2, “Derivatives of 2-phenyl-3-hydroxyquinoline-4(1H)-one and methods of their preparation and utilization” (Univerzita Palackeho, priority 2006, dated 2012).

Each structure is given as a SMILES string. Read-outs that look alike come from different tables or passages of the source.

Data set [1] deals with CEM (T-lymphoblastic leukaemia). Briefly: MTT cytotoxic test, CEM. Format: cell-based. Conditions: CEM cells, mean (x), read-out: Cytotoxic and antiproliferation activity MTT test (IC50, μM) CEM x. The text has this: (§1) In order to evaluate antitumour activity of the new prepared substances in vitro, we used the MTT cytotoxic test on cell lines derived from normal tissues and tumours. In particular, they included the NIH 3T3 (mouse fibroblasts), K562 (human myeloid leukaemia), K562-tax (human myeloid leukaemia resistant to taxol and the overexpressing protein of the PgP multiple drug resistance), CEM (T-lymphoblastic leukaemia), CEM-DNR-bulk (T-lymphoblastic leukaemia resistant to doxorubicine, lacking the expression of target gene for inhibitors of topoisomerase II alpha) and the line A549 (human lung adenocarcinoma).
For orientation: Tetrazolium assays rely on reduction of a dye to a coloured formazan, in cell work by metabolically active cells.

The subject of data set [2] is CEM-DNR-bulk (T-lymphoblastic leukaemia resistant to doxorubicine). Briefly: MTT cytotoxic test, CEM-DNR-bulk. Format: cell-based. Particulars: CEM-DNR-BULK cells, mean (x); read-out: Cytotoxic and antiproliferation activity MTT test (IC50, μM) CEM-DNR-BULK x.
From the text: as §1

Data set [3] deals with K562 (human myeloid leukaemia). Briefly: MTT cytotoxic test, K562. Format: cell-based. Conditions: K 562 cells, mean (x), read-out: Cytotoxic and antiproliferation activity MTT test (IC50, μM) K 562 x.
From the text: as §1

For data set [4], the system named is K562-tax (human myeloid leukaemia resistant to taxol). Nature of the data set: MTT cytotoxic test, K562-tax. Format: cell-based. Particulars: K562-TAX cells, mean (x), read-out: Cytotoxic and antiproliferation activity MTT test (IC50, μM) K562-TAX x.
From the text: as §1

Data set [5] relates to A549 (human lung adenocarcinoma). Nature of the data set: MTT cytotoxic test, A549. Format: cell-based. Particulars: A 549 cells, mean (x), read-out: Cytotoxic and antiproliferation activity MTT test (IC50, μM) A 549 x.
From the text: as §1

Data set [6] has as its system concavaline A-stimulated human lymphocytes. Briefly: MTT test, inhibition of lymphocyte activation with ConA. Format: cell-based. Conditions: 5 μg/ml, mean (x). The text has this:
The proliferation response of isolated lymphocytes to polyclonal mitogens belongs to the most important parameters of specific cell immunity. Most of the human lymphocytes occur in quiet state. Antigens or polyclonal mitogens, however, are capable of activating lymphatic cells, which is accompanied by dramatic changes of their cell metabolism (enhanced mitochondrial activity, protein and nucleic acid synthesis, formation of blastic cells and proliferations). Substances having the capability to suppress such processes show immunosuppressive activity in clinical conditions and, therefore, these tests can be used for screening tests of immunosuppressive activity in vitro. On this account, we use the above-mentioned MTT test, which evaluates both the survival and the proliferation activity of quiet vs. polyclonal-mitogen (concavaline A, 5 μg/ml)-stimulated human lymphocytes to screen the immunosuppressive activity of new substances (Jegorov et al., J. Mass. Spetrom., 2006).

One may read the melting point as the temperature, or range, at which the solid turns liquid.

In turn, `O=c1c(O)c(-c2ccc(N3CCN(CCO)CC3)c([N+](=O)[O-])c2)[nH]c2ccccc12` had a melting point of 218 to 221 °C.

For the compound `C/C=C/CCSc1ccc(-c2[nH]c3ccccc3c(=O)c2O)cc1[N+](=O)[O-]`, the IC50 in data set [1] turned out to be 2.1 µM; in data set [2] it was 3.2 µM; in data set [3], 9.3 µM; in data set [4] it was 5.2 µM; in data set [5] it was 4.3 µM.

`O=c1c(O)c(-c2ccc3c(c2)ncn3CC(F)(F)F)[nH]c2ccccc12` returned an IC50 in data set [6] of 4.2 µM.

On to `O=c1c(O)c(-c2ccc(Cl)c([N+](=O)[O-])c2)[nH]c2ccccc12` [Cl, 2-(4-Chlorine-3-nitrophenyl)-3-hydroxyquinoline-4(1H)-one], for which the IC50 in data set [1] worked out at 2.6 µM; in data set [2], 3.5 µM; in data set [3] it was 2.3 µM; in data set [4] it was 3.2 µM; in data set [5] it was 4.2 µM.

`O=c1c(O)c(-c2ccc(N3CCN(CCOCCO)CC3)c([N+](=O)[O-])c2)[nH]c2ccccc12` [Example 5, 3-Hydroxy-2-(4-{4-[2-(2-hydroxyethoxy)ethyl]piperazine-1-yl}-3-nitrophenyl)quinoline-4(1H)-one]: the melting point fell in the range of 203 to 204 °C.

In the case of `CCNc1ccc(-c2[nH]c3ccccc3c(=O)c2O)cc1[N+](=O)[O-]` [Example 6, 2-[4-(Ethylamino)-3-nitrophenyl]-3-hydroxyquinoline-4(1H)-one], the melting point was in the range of 282 to 285 °C.

`O=c1c(O)c(-c2ccc(Sc3ccccc3)c([N+](=O)[O-])c2)[nH]c2ccccc12` [Example 7, 3-Hydroxy-2-[3-nitro-4-(phenylthio)phenyl]quinoline-4(1H)-one] had a melting point of 322 to 324 °C.

Take `O=c1c(O)c(-c2ccc(-n3ccnc3)c([N+](=O)[O-])c2)[nH]c2ccccc12` [Example 8, 3-Hydroxy-2-[4-(1H-imidazole-1-yl)-3-nitrophenyl]quinoline-4(1H)-one]: the melting point was in the range of 278 to 280 °C.

Compound `O=c1c(O)c(-c2ccc(F)c([N+](=O)[O-])c2)[nH]c2ccccc12` [F] yielded an IC50 in data set [6] of 3.8 µM.

As for `CCN(CC)CCn1cnc2cc(-c3[nH]c4ccccc4c(=O)c3O)ccc21` [—(CH2)2N(C2H5)2], the IC50 is 5.2 µM in data set [1]; 71.2 µM in data set [2]; 2.1 µM in data set [3]; 6.5 µM in data set [4]; 3.5 µM in data set [5].

`O=c1c(O)c(-c2ccc3c(c2)ncn3CCSCCO)[nH]c2ccccc12` [—(CH2)2S(CH2)2OH]: the IC50 is 0.8 µM in data set [1]; 2.2 µM in data set [2]; 3.1 µM in data set [3]; 4.5 µM in data set [4]; 3.6 µM in data set [5].

Consider `CCCCCCn1cnc2cc(-c3[nH]c4ccccc4c(=O)c3O)ccc21` [—(CH2)5CH3], for which the IC50 in data set [1] came out at 2.8 µM; in data set [2] it was 54 µM; in data set [3], 8.5 µM; in data set [4], 35 µM; in data set [5] it was 44.3 µM.

In the case of `O=CNCCn1cnc2cc(-c3[nH]c4ccccc4c(=O)c3O)ccc21` [—CH2CH2NHCHO], the IC50 in data set [6] worked out at 1.1 µM.

Turning to `CCCN(CCC)c1ccc(-c2[nH]c3ccccc3c(=O)c2O)cc1[N+](=O)[O-]` [—N(CH2CH2CH3)2], the IC50 worked out at 0.7 µM in data set [1]; 2.2 µM in data set [2]; 0.6 µM in data set [3]; 1.2 µM in data set [4]; 1.1 µM in data set [5]; 0.9 µM in data set [6].

Turning to `O=c1c(O)c(-c2ccc(N(CCO)CCO)c([N+](=O)[O-])c2)[nH]c2ccccc12` [—N(CH2CH2OH)2], the IC50 in data set [1] turned out to be 0.3 µM; in data set [2], 143 µM; in data set [3] it was 187 µM; in data set [4] it was 198 µM; in data set [5], 224 µM; in data set [6] it was 0.9 µM.

On to `CCN(C)c1ccc(-c2[nH]c3ccccc3c(=O)c2O)cc1[N+](=O)[O-]` [—N(CH3)(CH2CH3)], for which the IC50 was 1.7 µM in data set [1]; 129 µM in data set [2]; 0.7 µM in data set [3]; 163 µM in data set [4]; 66.5 µM in data set [5]; 5.7 µM in data set [6].

With `O=c1c(O)c(-c2ccc(NCCO)c([N+](=O)[O-])c2)[nH]c2ccccc12` [—NH(CH2)2OH], the IC50 in data set [1] came out at 2.7 µM; in data set [2], 98.8 µM; in data set [3], 7.3 µM; in data set [4], 44.9 µM; in data set [5], 46.8 µM; in data set [6] it was 3.8 µM.

`O=c1c(O)c(-c2ccc(NCCCO)c([N+](=O)[O-])c2)[nH]c2ccccc12` [—NH(CH2)3OH, 3-Hydroxy-2-{4-[(3-hydroxypropyl)amino]-3-nitrophenyl}quinoline-4(1H)-one] returned a melting point of 233 to 236 °C. Besides, the IC50 in data set [1] (Homo sapiens, CCRF-CEM) was determined as 1.4 µM. For the same compound, in data set [2], the IC50 is 46.3 µM. In addition, the IC50 in data set [3] (Homo sapiens, K562) was determined as 6.2 µM. The IC50 in data set [4] (Homo sapiens) turned out to be 12.9 µM. In data set [5] (Homo sapiens, A549), the IC50 stood at 12.4 µM. Moreover, the IC50 in data set [6] (Lymphocyte) was found to be 0.8 µM.

Consider `O=c1c(O)c(-c2ccc(NCCCCO)c([N+](=O)[O-])c2)[nH]c2ccccc12` [—NH(CH2)4OH], for which the IC50 in data set [1] worked out at 0.7 µM; in data set [2] it was 15.1 µM; in data set [3], 1.8 µM; in data set [4] it was 8.6 µM; in data set [5], 5.7 µM; in data set [6], 1.1 µM.

On to `O=c1c(O)c(-c2ccc(NCCCCCO)c([N+](=O)[O-])c2)[nH]c2ccccc12` [—NH(CH2)5OH], for which the IC50 in data set [1] was 1 µM; in data set [2] it was 10.8 µM; in data set [3], 2.8 µM; in data set [4], 5.7 µM; in data set [5], 5.3 µM; in data set [6] it was 0.6 µM.

`CC(C)Nc1ccc(-c2[nH]c3ccccc3c(=O)c2O)cc1[N+](=O)[O-]` [—NHCH(CH3)2]: the IC50 in data set [1] came out at 1.6 µM; in data set [2], 6.8 µM; in data set [3], 2.1 µM; in data set [4] it was 3 µM; in data set [5], 2.8 µM; in data set [6], 4.8 µM.
